Laboratory results reported in patent US20240208961A1, “EIF4E INHIBITORS AND USES THEREOF” (PIC Therapeutics, Inc., priority 2022, published 2024).

Tests used:
Human eIF4E (aa 28-217) = biological target: T1, Human eIF4E (aa 28-217) (Homo sapiens, UniProt P06730); assay: 4G-eIF4E protein-based assay (TR-FRET, biotin labeled 4G2 peptide); assay type: binding
T1 construct: Human eIF4E (aa 28-217) with a C-terminal His-tag; made in house
Protocol: Human eIF4E ([…]) with a C-terminal His-tag was expressed in E. coli in inclusion bodies. The protein was solubilized with 8 M urea and purified under denaturing conditions using nickel-charged HisTrap HP columns (GE Healthcare). The purified protein was then refolded by diluting in 20 mM Hepes pH 7.0, 0.5 M NaCl, 1 mM DTT, […], 0.5 M arginine plus 6 M urea, and then dialyzing overnight into the same buffer without the urea. The protein was further dialyzed into 20 mM Hepes, pH 6.5, 50 mM NaCl, 1 mM EDTA, 1 mM DTT, and concentrated using Hitrap SP sepharose FF columns (GE Healthcare). The concentrated protein was dialyzed into 20 mM Hepes, pH 7.0, 0.5M NaCl, 5 mM DTT and […], and stored at -80° C. until use. Test compounds (3.43 mM stock in DMSO) were diluted 2-fold in series in DMSO (10 concentration points). Compound solutions (1.2 μL/well) were added into black 384-well polypropylene microplates (Matrix, Thermal Scientific). […] The samples were incubated at room temperature (20-23° C.) for 4 hours. Biotin labeled 4G2 peptide ([…])-NH2, 1.75 μM stock in DMSO) was diluted to 0.13 μM in Assay Buffer (without DTT) and 5 μL/well was added. The samples were incubated at room temperature for 20 min. Five microliters per well of 15 nM Eu-streptavidin (Eu-SA, Perkin Elmer) and 96 nM Allophycocyanin (APC)-anti His antibody (Columbia Biosciences) in Assay Buffer (without DTT) were then added and the samples were incubated at room temperature for 20 min. Assay signals were monitored by reading excitation at 340 nm and emission fluorescence at 615 nm and 665 nm on an Envision reader (Perkin Elmer). Normalized TR-FRET (time-resolved fluorescence resonance energy transfer) assay signal (Rn) was calculated by the formula: […] C=(Ac-Ba)/(Dc-Bd) • Where Ac is the fluorescence intensity of 1.5 nM Eu-SA in the assay buffer at 665 nm. IC50 values were calculated using xLFit program (IDBS).

NIHOVCAR3 = assay: Cell viability assay, adherent cell line, 5 day Alamar Blue (Example 8): NIHOVCAR3; assay type: cell-based; details: Homo sapiens, OVCAR-3, 120 h, OVCAR3, Ovarian Cancer Cell
Protocol: (§1) Cell viability assays were performed on certain compounds of the disclosure, according to the following procedure.
(§2) Cell line specific media conditions used:
(§3) The procedure for adherent cell line compound screening was as follows:
(§4) • Cells were seeded in 96-well cell culture treated tissue culture plates: ZR-75-1, NIHOVCAR3, T47D, and LOVO cells 4000 cells/well; and HPAFII 3000 cell/well
(§5) Day 3: Compound Dilution and Dosing
(§6) • 5-fold serial dilution (8 point) of each compound in DMSO 0-25 mM in compound storage plates was prepared (stored at −80° C. if not to be used immediately). • Cells were rinsed with 1% FBS Media (appropriate to cell line as described above) and replaced with 87.5 μL media prior to dosing. HPAFII was screened in normal 10% FBS Media. • DMSO compound dilution series was diluted in 1% FBS media (appropriate to cell line as described above)—2 μL in 248 μL to give an 8× final concentration. • Cells were dosed 12.5 μL/well in triplicate to give final dose curved on cells 0-25 μM. • Media blank 100 μL/well×8 was set up. • All plates were incubated at 37° C.
(§7) Day 8: 5 Day Viability Assay
(§8) • Alamar Blue viability reagent was added (10 μL per well) and incubated for 3 hours at 37° C. prior to fluorescence detection (Ex560 nm/Em590 nm) on a Varioskan Lux multimode plate reader.
(§9) Results from cell viability assays are summarized in Table 23, wherein A represents IC50≤1 μM; B represents 1 μM<IC50≤8 μM; and C represents IC50>8 μM. Blank cells indicate that the compound was not tested in a particular assay.

MM.1R = assay: Cell viability assay, suspension cell line, 5 day Alamar Blue (Example 8): MM.1R; assay type: cell-based; details: 120 h, Multiple Myeloma (Steroid Resistant) Cancer Cell
Protocol: as §1, §2
(§10) The procedure for suspension cell line compound screening was as follows:
(§11) Day 1: Cell Seeding and Compound Dosing
as §6, with “• Cells were seeded 2×10^5 in 96-well cell culture treated tissue culture plates: 87.5 μL/well; MM.1 S, MM,1R, NCIH510A. • 5-fold” for “• 5-fold”, “to dosing. • DMSO” for “to dosing. HPAFII was screened in normal 10% FBS Media. • DMSO”
(§12) Day 6: 5 Day Viability Assay
as §8, §9

LoVo = assay: Cell viability assay, adherent cell line, 5 day Alamar Blue (Example 8): LoVo; assay type: cell-based; details: Homo sapiens, 120 h, Colorectal Cancer Cell Viability
Protocol: as §1, §2, §3, §4, §5, §6, §7, §8, §9

ZR-75-1 [1] = assay: Cell viability assay, adherent cell line, 5 day Alamar Blue (Example 8): ZR-75-1; assay type: cell-based; details: Homo sapiens, 120 h, ZR-75-1, Breast Cancer Cell Viability
Protocol: as §1, §2, §3, §4, §5, §6, §7, §8, §9

MM.1S = assay: Cell viability assay, suspension cell line, 5 day Alamar Blue (Example 8): MM.1S; assay type: cell-based; details: Homo sapiens, MM1.S, 120 h, Multiple Myeloma (Steroid Sensitive) Cancer Cell
Protocol: as §1, §2, §10, §11
as §6, with “• Cells were seeded 2×10^5 in 96-well cell culture treated tissue culture plates: 87.5 μL/well; MM.1 S, MM,1R, NCIH510A. • 5-fold” for “• 5-fold”, “to dosing. • DMSO” for “to dosing. HPAFII was screened in normal 10% FBS Media. • DMSO”
as §12, §8, §9

HPAFII = assay: Cell viability assay, adherent cell line, 5 day Alamar Blue (Example 8): HPAFII; assay type: cell-based; details: Homo sapiens, HPAF-II, 120 h, Pancreatic Cancer Cell
Protocol: as §1, §2, §3, §4, §5, §6, §7, §8, §9

NCIH510A = assay: Cell viability assay, suspension cell line, 5 day Alamar Blue (Example 8): NCIH510A; assay type: cell-based; details: Homo sapiens, NCI-H510A, 120 h, Small Cell Lung Cancer Cell Line
Protocol: as §1, §2, §10, §11
as §6, with “• Cells were seeded 2×10^5 in 96-well cell culture treated tissue culture plates: 87.5 μL/well; MM.1 S, MM,1R, NCIH510A. • 5-fold” for “• 5-fold”, “to dosing. • DMSO” for “to dosing. HPAFII was screened in normal 10% FBS Media. • DMSO”
as §12, §8, §9

T47D = assay: Cell viability assay, adherent cell line, 5 day Alamar Blue (Example 8): T47D; assay type: cell-based; details: Homo sapiens, 120 h, Breast Cancer Cell Viability
Protocol: as §1, §2, §3, §4, §5, §6, §7, §8, §9

ZR-75-1 [2] = assay: ZR-75-1 compound screening cell viability, Alamar Blue (Example 6); assay type: cell-based; details: Homo sapiens, 96 h, ZR-75-1 cells, Media 1% FBS, read-out: ZR-75-1 Cell Viability, 4 Days: IC50

T1 sequence (P06730 28-217): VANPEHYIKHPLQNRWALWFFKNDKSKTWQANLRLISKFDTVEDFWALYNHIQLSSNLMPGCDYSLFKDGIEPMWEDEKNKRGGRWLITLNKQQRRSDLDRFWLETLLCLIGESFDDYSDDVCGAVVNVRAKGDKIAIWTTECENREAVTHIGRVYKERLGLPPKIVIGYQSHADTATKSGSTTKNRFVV

Row | IC50 (Human eIF4E (aa 28-217)) [nM] | IC50 (MM.1R) [nM] | IC50 (LoVo) [nM] | IC50 (MM.1S) [nM] | IC50 (T47D) [nM] | SMILES | IC50 (NIHOVCAR3) [nM] | IC50 (ZR-75-1 [1]) [nM] | IC50 (HPAFII) [nM] | IC50 (NCIH510A) [nM] | IC50 (ZR-75-1 [2]) [nM]
1 | ≤ 500 | > 8000 | 1000 to 8000 | > 8000 | 1000 to 8000 | Cc1ccc(-c2cnc(Nc3nc(C(C)(C)C)c(CC(C)C)s3)c(C(=O)O)c2)s1 [Compound I-24] | 1000 to 8000 | 1000 to 8000 | > 8000 | 1000 to 8000 | –
2 | 500 to 1000 | 1000 to 8000 | 1000 to 8000 | 1000 to 8000 | 1000 to 8000 | Cc1ccc(-c2cnc(Nc3nc(C4CCC(F)(F)CC4)c(CC(C)C)s3)c(C(=O)O)c2)s1 [Compound I-30] | 1000 to 8000 | 1000 to 8000 | > 8000 | 1000 to 8000 | –
3 | – | – | – | – | – | CC(C)c1sc(Nc2ncc(-c3cccs3)cc2C(=O)O)nc1C1=CCCC1 [Compound I-9] | – | ≤ 1000 | – | – | < 1000
4 | – | – | – | – | – | CC(C)Cc1sc(Nc2ncc(-c3cccs3)cc2C(=O)O)nc1C(F)(F)F [Compound I-22] | – | 1000 to 8000 | – | – | 1000 to 8000
5 | – | – | – | – | – | Cc1nc(Nc2ncc(-c3cccs3)cc2C(=O)O)sc1CC(C)C [Compound I-17] | – | > 8000 | – | – | > 8000
6 | – | – | – | – | – | CC(C)Cc1sc(Nc2ncc(-c3cccs3)cc2C(=O)O)nc1C1CC1 [Compound I-10] | – | 1000 to 8000 | – | – | 1000 to 8000
7 | – | – | – | – | – | CC(C)c1cnc(Nc2ncc(-c3cccs3)cc2C(=O)O)s1 [Compound I-16] | – | > 8000 | – | – | > 8000
8 | – | – | – | – | – | CC(C)Cc1cnc(Nc2ncc(-c3cccs3)cc2C(=O)O)s1 [Compound I-18] | – | 1000 to 8000 | – | – | 1000 to 8000
9 | 500 to 1000 | 1000 to 8000 | ≤ 1000 | ≤ 1000 | ≤ 1000 | CC(C)Cc1sc(Nc2ncc(-c3cccs3)cc2C(=O)O)nc1C1=CCC(F)(F)CC1 [Compound I-4] | ≤ 1000 | ≤ 1000 | ≤ 1000 | ≤ 1000 | < 1000
10 | – | – | – | – | – | COC(=O)c1cc(-c2cccs2)cnc1Nc1nc(C2=CCC(F)(F)CC2)c(CC(C)C)s1 [Compound I-5, methyl 2-((4-(4,4-difluorocyclohex-1-en-1-yl)-5-isobutylthiazol-2-yl)amino)-5-(thiophen-2-yl)nicotinate] | – | > 8000 | – | – | > 8000
11 | – | – | – | – | – | CC(C)c1sc(Nc2ncc(-c3cccs3)cc2C(=O)O)nc1C1CCC(F)(F)CC1 [Compound I-31] | – | 1000 to 8000 | – | – | –
